Assays:
FAK = FAK (Homo sapiens (Human), UniProt Q05397); assay: Biochemical assay for FAK activity (LANCE TR-FRET, ULight-poly Glu,Ala,Tyr substrate); conditions: GST-tagged FAK, 120 min reaction
Procedure, shortened: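 GST-tagged FAK (2.5 nM working stock) with ULight-poly Glu,Ala,Tyr (666 nM stock) and ATP (33.3 μM stock) in Tris pH 7.5/MgCl2/DTT/CHAPS buffer with BSA, 120 min; EDTA-quenched. Phosphorylation read by TR-FRET with Eu-anti-phosphotyrosine (PY20) antibody after 60 min. Compounds tested as 12-point 3-fold dilutions.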

PYK2 = PYK2 (Homo sapiens (Human), UniProt Q14289); assay: Biochemical assay for PYK2 activity (LANCE TR-FRET, ULight-poly Glu,Ala,Tyr substrate); conditions: GST-tagged PYK2, 40 min reaction
Chain of PYK2 (Q14289 whole entry): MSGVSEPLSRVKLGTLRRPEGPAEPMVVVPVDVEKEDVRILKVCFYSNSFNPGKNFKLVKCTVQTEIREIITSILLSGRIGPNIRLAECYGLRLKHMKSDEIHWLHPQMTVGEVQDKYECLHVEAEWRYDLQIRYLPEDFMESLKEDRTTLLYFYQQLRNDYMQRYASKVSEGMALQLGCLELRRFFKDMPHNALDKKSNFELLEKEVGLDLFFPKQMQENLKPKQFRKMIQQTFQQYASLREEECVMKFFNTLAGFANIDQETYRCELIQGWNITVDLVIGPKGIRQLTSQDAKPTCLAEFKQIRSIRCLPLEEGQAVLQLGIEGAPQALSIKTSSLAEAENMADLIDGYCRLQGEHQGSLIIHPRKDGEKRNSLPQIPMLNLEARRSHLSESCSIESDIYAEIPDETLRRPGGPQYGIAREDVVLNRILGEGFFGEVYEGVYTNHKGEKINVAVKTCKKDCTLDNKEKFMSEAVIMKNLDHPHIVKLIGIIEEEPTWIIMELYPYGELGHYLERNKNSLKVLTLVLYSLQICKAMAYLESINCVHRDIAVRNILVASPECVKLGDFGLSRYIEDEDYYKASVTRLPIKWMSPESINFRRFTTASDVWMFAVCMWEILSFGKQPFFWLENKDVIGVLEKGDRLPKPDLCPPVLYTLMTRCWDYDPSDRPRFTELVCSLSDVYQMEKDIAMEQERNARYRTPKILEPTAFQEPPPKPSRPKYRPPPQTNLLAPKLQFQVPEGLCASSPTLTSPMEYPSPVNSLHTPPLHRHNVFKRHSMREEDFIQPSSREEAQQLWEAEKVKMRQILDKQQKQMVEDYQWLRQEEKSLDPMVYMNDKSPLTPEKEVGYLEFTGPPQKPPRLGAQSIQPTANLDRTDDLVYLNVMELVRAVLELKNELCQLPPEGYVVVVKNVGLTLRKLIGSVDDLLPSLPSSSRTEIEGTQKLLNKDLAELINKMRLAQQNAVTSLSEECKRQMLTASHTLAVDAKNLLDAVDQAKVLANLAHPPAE
Procedure, shortened: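 GST-tagged human PYK2 (2 nM working stock) with ULight-poly Glu,Ala,Tyr (1:1:1) peptide (666 nM working stock) and ATP (46.6 μM working stock) in 40 mM Tris pH 7.5, MgCl2, 1 mM DTT, 1 mM CHAPS; 40 min reaction, EDTA quench. Phosphotyrosine read by LANCE Eu-anti-phosphotyrosine (PY20) TR-FRET after 60 min; 12-point 3-fold compound dilutions.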

Chain of FAK (Q05397 whole entry): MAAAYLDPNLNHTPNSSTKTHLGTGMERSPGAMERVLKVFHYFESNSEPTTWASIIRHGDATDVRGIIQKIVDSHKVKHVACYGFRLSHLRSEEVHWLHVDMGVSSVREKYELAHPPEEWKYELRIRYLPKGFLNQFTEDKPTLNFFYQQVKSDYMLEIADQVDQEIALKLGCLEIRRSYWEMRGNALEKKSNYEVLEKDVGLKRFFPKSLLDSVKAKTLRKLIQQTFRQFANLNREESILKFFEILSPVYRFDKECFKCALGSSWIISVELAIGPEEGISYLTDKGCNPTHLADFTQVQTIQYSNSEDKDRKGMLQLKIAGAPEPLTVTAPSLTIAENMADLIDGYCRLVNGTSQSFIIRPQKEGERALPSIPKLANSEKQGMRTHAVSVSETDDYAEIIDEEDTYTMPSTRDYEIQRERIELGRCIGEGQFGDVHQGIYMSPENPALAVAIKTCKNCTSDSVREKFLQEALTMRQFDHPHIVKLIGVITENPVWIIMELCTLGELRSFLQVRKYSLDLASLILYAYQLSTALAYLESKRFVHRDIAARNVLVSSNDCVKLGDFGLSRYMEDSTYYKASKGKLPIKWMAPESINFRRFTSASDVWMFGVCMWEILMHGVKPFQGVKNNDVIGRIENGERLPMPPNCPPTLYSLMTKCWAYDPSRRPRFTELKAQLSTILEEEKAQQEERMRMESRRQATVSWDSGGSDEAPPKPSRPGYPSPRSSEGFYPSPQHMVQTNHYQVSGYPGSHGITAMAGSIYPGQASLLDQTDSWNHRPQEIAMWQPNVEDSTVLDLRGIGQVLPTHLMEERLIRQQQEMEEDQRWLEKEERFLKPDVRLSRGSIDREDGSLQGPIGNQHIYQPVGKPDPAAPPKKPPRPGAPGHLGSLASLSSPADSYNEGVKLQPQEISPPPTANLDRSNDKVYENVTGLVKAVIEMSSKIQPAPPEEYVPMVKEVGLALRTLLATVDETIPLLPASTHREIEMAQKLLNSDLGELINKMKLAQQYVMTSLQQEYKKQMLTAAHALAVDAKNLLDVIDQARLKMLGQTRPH

Compound: COc1cc(N2CCOCC2)ccc1Nc1nc2c(c(Nc3ccccc3S(=O)(=O)NCCO)n1)C(C)(C)CN2 [Example 119, N-(2-hydroxyethyl)-2-(2-(2-methoxy-4-morpholinophenylamino)-5,5-dimethyl-6,7-dihydro-5H-pyrrolo[2,3-d]pyrimidin-4-ylamino)benzenesulfonamide]
- IC50 (FAK): < 500 nM
- IC50 (PYK2): < 200 nM

Compound: COc1cc(N2CCOCC2)ccc1Nc1nc2c(c(Nc3ccccc3S(=O)(=O)NCCN(C)C)n1)C(C)(C)CN2 [Example 120, N-(2-(dimethylamino)ethyl)-2-(2-(2-methoxy-4-morpholinophenylamino)-5,5-dimethyl-6,7-dihydro-5H-pyrrolo[2,3-d]pyrimidin-4-ylamino)benzenesulfonamide]
- IC50 (FAK): < 20 nM
- IC50 (PYK2): < 50 nM

Compound: COc1cc(N2CCOCC2)ccc1Nc1nc2c(c(Nc3ccccc3C(=O)N3CCCC3)n1)C(C)(C)CN2 [Example 121, (2-(2-(2-methoxy-4-morpholinophenylamino)-5,5-dimethyl-6,7-dihydro-5H-pyrrolo[2,3-d]pyrimidin-4-ylamino)phenyl)(pyrrolidin-1-yl)methanone]
- IC50 (FAK): < 200 nM
- IC50 (PYK2): < 200 nM

Compound: COc1cc(N2CCOCC2)ccc1Nc1nc2c(c(Nc3ccccc3N(C)S(C)(=O)=O)n1)C(C)(C)CN2 [Example 122, N-(2-(2-(2-methoxy-4-morpholinophenylamino)-5,5-dimethyl-6,7-dihydro-5H-pyrrolo[2,3-d]pyrimidin-4-ylamino)phenyl)-N-methylmethanesulfonamide]
- IC50 (FAK): < 50 nM
- IC50 (PYK2): < 100 nM

Compound: COc1cc(N2CCOCC2)ccc1Nc1nc2c(c(Nc3cccc(C)n3)n1)C(C)(C)CN2 [Example 123, N^2-(2-methoxy-4-morpholinophenyl)-5,5-dimethyl-N^4-(6-methylpyridin-2-yl)-6,7-dihydro-5H-pyrrolo[2,3-d]pyrimidine-2,4-diamine]
- IC50 (FAK): < 200 nM
- IC50 (PYK2): < 500 nM

Compound: COc1cc(N2CCOCC2)ccc1Nc1nc2c(c(Nc3ccccc3NC(C)=O)n1)C(C)(C)CN2 [Example 124, N-(2-(2-(2-methoxy-4-morpholinophenylamino)-5,5-dimethyl-6,7-dihydro-5H-pyrrolo[2,3-d]pyrimidin-4-ylamino)phenyl)acetamide]
- IC50 (FAK): < 200 nM
- IC50 (PYK2): < 200 nM

Compound: COc1cc(N2CCOCC2)ccc1Nc1nc2c(c(Nc3ccc(F)c(F)c3)n1)C(C)(C)CN2 [Example 125, N^4-(3,4-difluorophenyl)-N^2-(2-methoxy-4-morpholinophenyl)-5,5-dimethyl-6,7-dihydro-5H-pyrrolo[2,3-d]pyrimidine-2,4-diamine]
- IC50 (FAK): < 1000 nM
- IC50 (PYK2): > 1000 nM

Compound: CNC(=O)c1ccc2c(c1Nc1nc(Nc3ccc(N4CCOCC4)cc3OC)nc3c1C(C)(C)CN3)OCO2 [Example 126, 4-(2-(2-methoxy-4-morpholinophenylamino)-5,5-dimethyl-6,7-dihydro-5H-pyrrolo[2,3-d]pyrimidin-4-ylamino)-N-methylbenzo[d][1,3]dioxole-5-carboxamide]
- IC50 (FAK): < 1000 nM
- IC50 (PYK2): > 1000 nM

Compound: COc1cc(N2CCOCC2)ccc1Nc1nc2c(c(NC3CCCCC3N(C)S(C)(=O)=O)n1)C(C)(C)CN2 (centres unmarked) [Example 127, N-(2-(2-(2-methoxy-4-morpholinophenylamino)-5,5-dimethyl-6,7-dihydro-5H-pyrrolo[2,3-d]pyrimidin-4-ylamino)cyclohexyl)-N-methylmethanesulfonamide]
- IC50 (FAK): < 100 nM
- IC50 (PYK2): < 100 nM

Compound: CNC(=O)c1ccccc1Nc1nc(Nc2cccc3c2OCCO3)nc2c1C(C)(C)CN2 [Example 128, 2-(2-(2,3-dihydrobenzo[b][1,4]dioxin-5-ylamino)-5,5-dimethyl-6,7-dihydro-5H-pyrrolo[2,3-d]pyrimidin-4-ylamino)-N-methylbenzamide]
- IC50 (FAK): < 20 nM
- IC50 (PYK2): < 20 nM

Compound: CNC(=O)c1ccccc1Nc1nc(Nc2ccc(N3CCOCC3)c3c2OCCO3)nc2c1C(C)(C)CN2 [Example 129, 2-(5,5-dimethyl-2-(8-morpholino-2,3-dihydrobenzo[b][1,4]dioxin-5-ylamino)-6,7-dihydro-5H-pyrrolo[2,3-d]pyrimidin-4-ylamino)-N-methylbenzamide]
- IC50 (FAK): < 50 nM
- IC50 (PYK2): < 100 nM

Compound: CNC(=O)c1ccccc1Nc1nc(Nc2cc(OC)c(OC)c(OC)c2)nc2c1C(C)(C)CN2 [Example 130, 2-(5,5-dimethyl-2-(3,4,5-trimethoxyphenylamino)-6,7-dihydro-5H-pyrrolo[2,3-d]pyrimidin-4-ylamino)-N-methylbenzamide]
- IC50 (FAK): < 200 nM
- IC50 (PYK2): < 200 nM

Compound: CNC(=O)c1ccccc1Nc1nc(Nc2cccc3ccoc23)nc2c1C(C)(C)CN2 [Example 131, 2-(2-(benzofuran-7-ylamino)-5,5-dimethyl-6,7-dihydro-5H-pyrrolo[2,3-d]pyrimidin-4-ylamino)-N-methylbenzamide]
- IC50 (FAK): < 20 nM
- IC50 (PYK2): < 20 nM

Compound: CNC(=O)c1ccccc1Nc1nc(Nc2cc(C)nn2C)nc2c1C(C)(C)CN2 [Example 132, 2-(2-(1,3-dimethyl-1H-pyrazol-5-ylamino)-5,5-dimethyl-6,7-dihydro-5H-pyrrolo[2,3-d]pyrimidin-4-ylamino)-N-methylbenzamide]
- IC50 (FAK): < 20 nM
- IC50 (PYK2): < 50 nM

Compound: CCN1C(=O)CCCc2c1ccc(Nc1nc3c(c(Nc4ccccc4C(=O)NC)n1)C(C)(C)CN3)c2OC [Example 133, 2-(2-(1-ethyl-6-methoxy-2-oxo-2,3,4,5-tetrahydro-1H-benzo[b]azepin-7-ylamino)-5,5-dimethyl-6,7-dihydro-5H-pyrrolo[2,3-d]pyrimidin-4-ylamino)-N-methylbenzamide]
- IC50 (FAK): < 20 nM
- IC50 (PYK2): < 50 nM

Compound: CNC(=O)c1ccccc1Nc1nc(Nc2ccc3c(ccn3CCCN3CCOCC3)c2)nc2c1C(C)(C)CN2 [Example 134, 2-(5,5-dimethyl-2-(1-(3-morpholinopropyl)-1H-indol-5-ylamino)-6,7-dihydro-5H-pyrrolo[2,3-d]pyrimidin-4-ylamino)-N-methylbenzamide]
- IC50 (FAK): < 200 nM
- IC50 (PYK2): < 200 nM

Compound: CNS(=O)(=O)c1ccccc1Nc1nc(Nc2ccc(N3CCOCC3)cc2OC)nc2c1C1(CC1)CN2 [Example 135, 2-(2′-(2-methoxy-4-morpholinophenylamino)-6′,7′-dihydrospiro[cyclopropane-1,5′-pyrrolo[2,3-d]pyrimidine]-4′-ylamino)-N-methylbenzenesulfonamide]
- IC50 (FAK): < 50 nM
- IC50 (PYK2): < 20 nM

Compound: COc1cc(N2CCOCC2)ccc1Nc1nc2c(c(Nc3ccccc3S(=O)(=O)NC(C)(C)C)n1)C1(CC1)CN2 [Example 136, N-tert-butyl-2-(2′-(2-methoxy-4-morpholinophenylamino)-6′,7′-dihydrospiro[cyclopropane-1,5′-pyrrolo[2,3-d]pyrimidine]-4′-ylamino)benzenesulfonamide]
- IC50 (FAK): < 20 nM
- IC50 (PYK2): < 20 nM

Compound: COc1cc(N2CCOCC2)ccc1Nc1nc2c(c(Nc3ccccc3S(=O)(=O)NCC(C)C)n1)C1(CC1)CN2 [Example 137, N-isobutyl-2-(2′-(2-methoxy-4-morpholinophenylamino)-6′,7′-dihydrospiro[cyclopropane-1,5′-pyrrolo[2,3-d]pyrimidine]-4′-ylamino)benzenesulfonamide]
- IC50 (FAK): < 20 nM
- IC50 (PYK2): < 20 nM

Compound: COc1cc(N2CCOCC2)ccc1Nc1nc2c(c(Nc3ccccc3S(=O)(=O)NC(C)C)n1)C1(CC1)CN2 [Example 138, N-isopropyl-2-(2′-(2-methoxy-4-morpholinophenylamino)-6′,7′-dihydrospiro[cyclopropane-1,5′-pyrrolo[2,3-d]pyrimidine]-4′-ylamino)benzenesulfonamide]
- IC50 (FAK): < 20 nM
- IC50 (PYK2): < 20 nM

Compound: CCNS(=O)(=O)c1ccccc1Nc1nc(Nc2ccc(N3CCOCC3)cc2OC)nc2c1C1(CC1)CN2 [Example 139, N-ethyl-2-(2′-(2-methoxy-4-morpholinophenylamino)-6′,7′-dihydrospiro[cyclopropane-1,5′-pyrrolo[2,3-d]pyrimidine]-4′-ylamino)benzenesulfonamide]
- IC50 (FAK): < 20 nM
- IC50 (PYK2): < 20 nM

Compound: COc1cc(N2CCOCC2)ccc1Nc1nc2c(c(Nc3ccccc3S(=O)(=O)NCC3CC3)n1)C1(CC1)CN2 [Example 140, N-(cyclopropylmethyl)-2-(2′-(2-methoxy-4-morpholinophenylamino)-6′,7′-dihydrospiro[cyclopropane-1,5′-pyrrolo[2,3-d]pyrimidine]-4′-ylamino)benzenesulfonamide]
- IC50 (FAK): < 20 nM
- IC50 (PYK2): < 20 nM

Compound: COCCNS(=O)(=O)c1ccccc1Nc1nc(Nc2ccc(N3CCOCC3)cc2OC)nc2c1C1(CC1)CN2 [Example 141, 2-(2′-(2-methoxy-4-morpholinophenylamino)-6′,7′-dihydrospiro[cyclopropane-1,5′-pyrrolo[2,3-d]pyrimidine]-4′-ylamino)-N-(2-methoxyethyl)benzenesulfonamide]
- IC50 (FAK): < 20 nM
- IC50 (PYK2): < 20 nM

Compound: COc1cc(N2CCOCC2)ccc1Nc1nc2c(c(Nc3ccccc3S(=O)(=O)NCCO)n1)C1(CC1)CN2 [Example 142, N-(2-hydroxyethyl)-2-(2′-(2-methoxy-4-morpholinophenylamino)-6′,7′-dihydrospiro[cyclopropane-1,5′-pyrrolo[2,3-d]pyrimidine]-4′-ylamino)benzenesulfonamide]
- IC50 (FAK): > 1000 nM
- IC50 (PYK2): > 1000 nM

Compound: COc1cc(N2CCOCC2)ccc1Nc1nc2c(c(Nc3ccccc3S(=O)(=O)Nc3ccccc3)n1)C1(CC1)CN2 [Example 143, 2-(2′-(2-methoxy-4-morpholinophenylamino)-6′,7′-dihydrospiro[cyclopropane-1,5′-pyrrolo[2,3-d]pyrimidine]-4′-ylamino)-N-phenylbenzenesulfonamide]
- IC50 (FAK): < 100 nM
- IC50 (PYK2): < 200 nM
